Reference: patent publication US20230365566A1, “HETEROCYCLIC AMIDES AND THEIR USE FOR MODULATING SPLICING” (REMIX THERAPEUTICS INC., priority 2020, published 2023)
Counter-ions that a name gives are not always drawn.

What was measured:
Type in all cases: cell-based
[1] = tested on: HTT mRNA alternative junction (AJ); experiment: Splicing RT-qPCR assay, increase of HTT alternative junction (AJ) mRNA; conditions: A673 or K562 cells, 24 hours compound treatment, concentration having 50% response in AJ increase
Protocol: (§1) Compounds described herein were used to modulate RNA transcript abundance in cells. The expression of a target mRNA was measured by detecting the formation of an exon-exon junction in the canonical transcript (CJ). A compound mediated exon-inclusion event was detected by observing an increase in formation of a new junction with an alternative exon (AJ). Real-time qPCR assays were used to detect these splicing switches and interrogate the potency of various compounds towards different target genes. A high-throughput real time quantitative PCR (RT-qPCR) assay was developed to measure these two isoforms of the mRNA (CJ and AJ) for an exemplary gene, HTT, together with a control housekeeping gene, GAPDH or GUSB or PPIA, used for normalization. Briefly, the A673 or K562 cell line was treated with various compounds described herein (e.g., compounds of Formula (I)). After treatment, the levels of the HTT mRNA targets were determined from each sample of cell lysate by cDNA synthesis followed by qPCR.
(§2) The A673 cell line was cultured in DMEM with 10% FBS. Cells were diluted with full growth media and plated in a 96-well plate (15,000 cells in 100 ul media per well). The plate was incubated at 37° C. with 5% CO2 for 24 hours to allow cells to adhere. An 11-point 3-fold serial dilution of the compounds was made in DMSO then diluted in media in an intermediate plate. Compounds were transferred from the intermediate plate to the cell plate with the top dose at a final concentration of 10 uM in the well. Final DMSO concentration was kept at or below 0.25%. The cell plate was returned to the incubator at 37° C. with 5% CO2 for an additional 24 hours.
(§3) The K562 cell line was cultured in IMDM with 10% FBS. For K562, cells were diluted with full growth media and plated in either a 96-well plate (50,000 cells in 50 uL media per well) or a 384-well plate (8,000-40,000 cells in 45 uL media per well). An 11-point 3-fold serial dilution of the compounds were made in DMSO then diluted in media in an intermediate plate. Compound was transferred from the intermediate plate to the cell plate with the top dose at a final concentration of 10 uM in the well. Final DMSO concentration was kept at or below 0.25%. Final volume was 100 uL for 96-well plate and 50 uL for 384-well plate. The cell plate was then placed in an incubator at 37° C. with 5% CO2 for 24 hours.
(§4) The cells were then gently washed with 50 uL-100 uL cold PBS before proceeding to addition of lysis buffer. 30 uL-50 uL of room temperature lysis buffer with DNAse I (and optionally RNAsin) was added to each well. Cells were shaken/mixed thoroughly at room temperature for 5-10 minutes for lysis to take place and then 3 uL-5 uL of room temperature stop solution was added and wells were shaken/mixed again. After 2-5 minutes, the cell lysate plate was transferred to ice for RT-qPCR reaction setup. The lysates could also be frozen at −80° C. for later use.
(§5) In some cases, a direct lysis buffer was used. An appropriate volume of 3× lysis buffer (10 mM Tris, 150 mM NaCl, 1.5%-2.5% Igepal and 0.1-1 U/uL RNAsin, pH 7.4) was directly added to either K562 or A673 cells in media and mixed by pipetting 3 times. The plates were then incubated at room temperature with shaking/rocking for 20-50 minutes to allow for lysis to take place. After this time, the cell lysate plate was transferred to ice to set up for the RT-qPCR reactions. The lysates could also be frozen at −80° C. for later use.
(§6) To set up 10 uL RT-qPCR reactions, cell lysates were transferred to 384-well qPCR plates containing the master mix according to the table below. The plates were sealed, gently vortexed, and spun down before the run. The volumes were adjusted accordingly in some instances where the reaction was carried in 20 uL. The table below summarizes the components of the RT-qPCR reactions:
(§7) The RT-qPCR reaction was performed using a QuantStudio (ThermoFisher) under the following fast cycling conditions. […]

[2] = tested on: HTT mRNA canonical junction (CJ); experiment: Splicing RT-qPCR assay, decrease of HTT canonical junction (CJ) mRNA; conditions: A673 or K562 cells, 24 hours compound treatment, concentration having 50% response in CJ decrease
Protocol: as §1, §2, §3, §4, §5, §6, §7

HTT CJ mRNA = experiment: Gene panel canonical junction qPCR assay, HTT; conditions: protocol of Example 42, read-out: HTT IC50 (decrease in CJ mRNA levels)
Protocol: as §1, §2, §3
(§8) The data analysis was performed by first determining the ACt vs the housekeeper gene. This ACt was then normalized against the DMSO control (AACt) and converted to RQ (relative quantification) using the 2^(−ΔΔCt) equation. The RQ were then converted to a percentage response by arbitrarily setting an assay window of 3.5 ΔCt for HTT-CJ and an assay window of 9 ΔCt for HTT-AJ. […] The percentage response was then fitted to the 4 parametric logistic equation to evaluate the concentration dependence of compound treatment. The increase in AJ mRNA is reported as AC50 (compound concentration having 50% response in AJ increase) while the decrease in CJ mRNA levels is reported as IC50 (compound concentration having 50% response in CJ decrease).
(§9) Additional studies were carried out for a larger panel of genes using the protocol provided above. The junction between flanking upstream and downstream exons was used to design canonical junction qPCR assays. At least one of the forward primer, reverse primer or the CY5-labeled 5′ nuclease probe (with 3′ quencher such as ZEN/Iowa Black FQ) was designed to overlap with the exon junction to capture the CJ mRNA transcript. BLAST was used to confirm the specificity of the probeset and parameters such as melting temperature, GC content, amplicon size, and primer dimer formation are considered during their design. Data for the decrease in CJ mRNA levels for three exemplary genes (HTT, SMN2, and Target C) analyzed in this panel are reported as IC50 (compound concentration having 50% response in CJ decrease).

SMN2 CJ mRNA = experiment: Gene panel canonical junction qPCR assay, SMN2; conditions: protocol of Example 42, read-out: SMN2 IC50 (decrease in CJ mRNA levels)
Protocol: as §1, §2, §3, §8, §9

Target C CJ mRNA = experiment: Gene panel canonical junction qPCR assay, Target C; conditions: protocol of Example 42, read-out: Target C IC50 (decrease in CJ mRNA levels)
Protocol: as §1, §2, §3, §8, §9

| Structure (SMILES) | AC50 [1] [µM] | AC50 [2] [µM] | IC50 (HTT CJ mRNA) [µM] | IC50 (SMN2 CJ mRNA) [µM] | IC50 (Target C CJ mRNA) [µM] |
| --- | --- | --- | --- | --- | --- |
| Cc1cn2cc(NC(=O)c3ccc(C4CCNCC4)c4c3OCC4)cc(F)c2n1 [Compound 188, N-[8-fluoro-2-methylimidazo[1,2-a]pyridin-6-yl]-4-(piperidin-4-yl)-2,3-dihydro-1-benzofuran-7-carboxamide] | > 10 | > 10 | > 10 | 0.1 to 1 | 1 to 10 |
| Cn1cc2c(F)cc(NC(=O)c3ccc(N4CCNCC4)c4cn(C)nc34)cc2n1 [Compound 231] | > 10 | > 10 | > 10 | > 10 | > 10 |
| Cc1cn2cc(NC(=O)c3ccc(C4CC(C)(C)NC(C)(C)C4)c4cc(C)oc34)cc(F)c2n1 [Compound 271, N-[8-fluoro-2-methylimidazo[1,2-a]pyridin-6-yl]-2-methyl-4-(2,2,6,6-tetramethylpiperidin-4-yl)-1-benzofuran-7-carboxamide] | > 10 | > 10 | > 10 | 0.1 to 1 | > 10 |
| Cc1cn2cc(NC(=O)c3ccc(N4CCNCC4)c4cc(C)oc34)ncc2n1 [Compound 263] | 1 to 10 | 1 to 10 | 1 to 10 | < 0.1 | 1 to 10 |
| Cc1cn2cc(NC(=O)c3ccc(N4CCN(C)C(C)C4)c4cc(C)oc34)cc(F)c2n1 (stereo not shown) [Compound 191] | 1 to 10 | 0.1 to 1 | 0.1 to 1 | < 0.1 | 1 to 10 |
| Cc1cn2cc(NC(=O)c3ccc(C4CCNCC4)c4ccoc34)cc(F)c2n1 [Compound 149, N-[8-fluoro-2-methylimidazo[1,2-a]pyridin-6-yl]-4-(piperidin-4-yl)-1-benzofuran-7-carboxamide hydrochloride] | 1 to 10 | 1 to 10 | 1 to 10 | < 0.1 | > 10 |
| Cc1cn2cc(NC(=O)c3ccc(N4CC5(CN(C)C5)C4)c4cc(C)oc34)cc(F)c2n1 [Compound 206] | 1 to 10 | 1 to 10 | 1 to 10 | < 0.1 | > 10 |
| Cc1cn2cc(NC(=O)c3ccc(C4CCN(C)CC4)c4cn(C)nc34)cc(F)c2n1 [Compound 209, N-[8-fluoro-2-methylimidazo[1,2-a]pyridin-6-yl]-2-methyl-4-(1-methylpiperidin-4-yl)indazole-7-carboxamide] | 0.1 to 1 | 0.1 to 1 | 0.1 to 1 | > 10 | 1 to 10 |
| Cc1nc2c(F)cc(NC(=O)c3ccc(N4CCNCC4)c4cn(C)nc34)cc2o1 [Compound 234] | 0.1 to 1 | 1 to 10 | 1 to 10 | < 0.1 | 1 to 10 |
| Cc1cn2cc(NC(=O)c3ccc(N4CCNCC4)c4cc(C)oc34)cc(F)c2n1 [Compound 142, N-[8-fluoro-2-methylimidazo[1,2-a]pyridin-6-yl]-2-methyl-4-(piperazin-1-yl)-1-benzofuran-7-carboxamide] | 1 to 10 | 1 to 10 | 1 to 10 | < 0.1 | 0.1 to 1 |
| Cc1cn2cc(NC(=O)c3ccc(C4CC(C)(C)NC(C)(C)C4)c4cn(C)nc34)cc(F)c2n1 [Compound 212, N-[8-fluoro-2-methylimidazo[1,2-a]pyridin-6-yl]-2-methyl-4-(2,2,6,6-tetramethylpiperidin-4-yl)indazole-7-carboxamide] | > 10 | 1 to 10 | 1 to 10 | 0.1 to 1 | > 10 |
| Cc1cn2cc(NC(=O)c3ccc(N4CCNCC4)c4c[nH]nc34)cc(Cl)c2n1 [Compound 286, N-{8-chloro-2-methylimidazo[1,2-a]pyridin-6-yl}-4-(piperazin-1-yl)-2H-indazole-7-carboxamide] | > 10 | > 10 |  |  |  |
| Cc1cn2cc(NC(=O)c3ccc(N4CC(C)(C)NC(C)(C)C4)c4cc(C)oc34)cc(F)c2n1 [Compound 195] |  |  | > 10 | < 0.1 | > 10 |
| Cc1cn2cc(-c3ccc(C(=O)NC4CCNCC4)c4oc(C)cc34)cc(F)c2n1 [Compound 283, 4-{8-fluoro-2-methylimidazo[1,2-a]pyridin-6-yl}-2-methyl-N-(piperidin-4-yl)-1-benzofuran-7-carboxamide] | > 10 | 1 to 10 |  |  |  |
| CCC1CN(c2ccc(C(=O)Nc3cc(F)c4nc(C)cn4c3)c3oc(C)cc23)CCN1 (stereo not shown) [Compound 192] |  |  | 1 to 10 | < 0.1 | 1 to 10 |
| Cc1cn2nc(NC(=O)c3ccc(C4CCNCC4)c4cc(C)oc34)cc(C)c2n1 [Compound 118, N-[2,8-dimethylimidazo[1,2-b]pyridazin-6-yl]-2-methyl-4-(piperidin-4-yl)-1-benzofuran-7-carboxamide] | 1 to 10 | 1 to 10 | 1 to 10 |  | > 10 |
| Cc1cn2nc(-c3ccc(C(=O)NC4CCNCC4)c4oc(C)cc34)cc(C)c2n1 [Compound 282, 4-{2,8-dimethylimidazo[1,2-b]pyridazin-6-yl}-2-methyl-N-(piperidin-4-yl)-1-benzofuran-7-carboxamide] | 1 to 10 | 1 to 10 |  |  |  |
| Cc1cn2cc(NC(=O)c3ccc(N4CCNCC4)c4nc(C)oc34)cc(F)c2n1 [Compound 140] | 1 to 10 | 1 to 10 | 1 to 10 | 0.1 to 1 |  |
| CCn1cc2c(N3CCNCC3)ccc(C(=O)Nc3cc(Cl)c4nc(C)cn4c3)c2n1 [Compound 284, N-{8-chloro-2-methylimidazo[1,2-a]pyridin-6-yl}-2-ethyl-4-(piperazin-1-yl)indazole-7-carboxamide] | > 10 | 1 to 10 |  |  |  |
| Cc1cn2cc(NC(=O)c3ccc(C4CCNCC4)c4cn(C)nc34)cc(Cl)c2n1 [Compound 285, N-{8-chloro-2-methylimidazo[1,2-a]pyridin-6-yl}-2-methyl-4-(piperidin-4-yl) indazole-7-carboxamide] | 0.1 to 1 | 0.1 to 1 |  |  |  |
